Ki data for 5 molecules are collected here from BindingDB's records for doi:10.1046/j.1471-4159.2000.740478.x (Janssen Research Foundation, 2000).

Broadly, the Ki is a measure of affinity in units of concentration, obtained from inhibition or displacement. Low values mean tighter binding, high ones weaker binding.

“And” between values parts separate entries of the source, which are not always exact repeats. Equal entries are not always repeated.

The assay deals with 5-hydroxytryptamine receptor 4 (Homo sapiens, UniProt Q13639).
Chain of 5-hydroxytryptamine receptor 4 (Q13639 whole entry): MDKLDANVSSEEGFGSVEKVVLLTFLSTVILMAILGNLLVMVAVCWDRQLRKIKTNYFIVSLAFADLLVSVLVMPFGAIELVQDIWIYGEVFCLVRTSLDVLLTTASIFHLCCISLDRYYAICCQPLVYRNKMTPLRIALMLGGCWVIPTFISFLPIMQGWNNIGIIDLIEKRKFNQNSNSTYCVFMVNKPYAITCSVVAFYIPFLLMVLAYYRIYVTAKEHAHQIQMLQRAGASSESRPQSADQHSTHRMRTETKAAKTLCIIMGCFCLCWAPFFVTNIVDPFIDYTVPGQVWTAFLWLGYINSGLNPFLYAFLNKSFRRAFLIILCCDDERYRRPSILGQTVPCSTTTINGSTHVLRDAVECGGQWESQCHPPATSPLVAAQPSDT
As for `Cn1cc(C(=O)OCC2CCN(CCNS(C)(=O)=O)CC2)c2ccccc21` [GR 113808], the Ki was 0.31 nM and 0.5 nM.

The molecule `COc1ccc2[nH]cc(CCN)c2c1` [tryptamine, 5-Methoxy] gave a Ki of 794 nM.

In the case of `CCCCN1CCC(COC(=O)c2cc(Cl)c(N)c3c2OCCO3)CC1` [CAS_121881], the inhibition constant (Ki) was 0.06 nM and 0.03 nM. As for `COc1ccc2[nH]cc(C=NN=C(N)NCCCCO)c2c1` [SDZ-HTF-919], the Ki is 15.8 nM and 10 nM and 25.1 nM. In the case of `CCOc1cc(N)c(Cl)cc1C(=O)NCC1CN(Cc2ccc(F)cc2)CCO1` (stereo not given) [SMR000469200], the inhibition constant (Ki) is 200 nM and 631 nM and 126 nM.
